Measurements reported in ChEMBL document CHEMBL1201862, “PubChem BioAssay data set” (2004).
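Following 48 hours of exposure in 96-well plates, responses at five concentrations were used to interpolate endpoints linearly. The concentration for 50% growth inhibition is given as GI50.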 Activity calls are given as the source filed them. Rule as the data show it: active = GI50 up to about 1.1 µM and inactive = higher.

What was measured:
Assay in all cases: inhibition of tumour cell growth, NCI panel, 48 h
[1] = test system: SNB-75
[2] = test system: OVCAR-8
[3] = test system: 786-0
[4] = test system: EKVX
[5] = test system: HCC 2998
[6] = test system: KM-20L2
[7] = test system: LOX IMVI
[8] = test system: HOP-92
[9] = test system: RPMI-8226
[10] = test system: RXF 393
[11] = test system: COLO 205
[12] = test system: IGROV-1
[13] = test system: M14
[14] = test system: U-251
[15] = test system: HT-29
[16] = test system: OVCAR-3
[17] = test system: SW-620
[18] = test system: MDA-MB-435
[19] = test system: MCF7
[20] = test system: NCI/ADR-RES

Row | Structure (SMILES) | GI50 [1] | GI50 [2] | GI50 [3] | GI50 [4] | GI50 [5] | GI50 [6] | GI50 [7] | GI50 [8] | GI50 [9] | GI50 [10] | GI50 [11] | GI50 [12] | GI50 [13] | GI50 [14] | GI50 [15] | GI50 [16] | GI50 [17] | GI50 [18] | GI50 [19] | GI50 [20]
1 | O=c1[nH]c(=O)n(C2OC(COP(=O)(O)OP(=O)(O)OC3OC(CO)C(O)C(O)C3O)C(O)C2O)cc1F (configuration not stated) | 1.64 µM (inactive) | 0.0966 µM (active) | 0.0526 µM (active) | 1.12 µM (inactive) | 0.116 µM (active) | 0.101 µM (active) | 0.0314 µM (active) | 1.12 µM (active) | < 0.01 µM (active) | 0.0522 µM (active) | 0.0984 µM (active) | 0.125 µM (active) | 0.234 µM (active) | 0.0577 µM (active) | 0.0582 µM (active) | 0.552 µM (active) | 0.0504 µM (active) |  |  | 
2 | Cc1c(C(=O)C/C(=N/NC(=O)C[N+](C)(C)C)C(=O)Nc2ccc(Cl)cc2)[n+]([O-])c2ccccc2[n+]1[O-] | > 100 µM (inactive) | > 100 µM (inactive) | > 100 µM (inactive) | > 100 µM (inactive) | > 100 µM (inactive) | > 100 µM (inactive) | > 100 µM (inactive) | > 100 µM (inactive) | > 100 µM (inactive) | > 100 µM (inactive) | > 100 µM (inactive) | > 100 µM (inactive) | > 100 µM (inactive) | > 100 µM (inactive) | > 100 µM (inactive) | > 100 µM (inactive) | > 100 µM (inactive) |  |  | 
3 | COc1ccc(/C=C(\Cl)c2ccc(OC)c(OC)c2)cc1OC | > 100 µM (inactive) | > 100 µM (inactive) | > 100 µM (inactive) | > 100 µM (inactive) | > 100 µM (inactive) | > 100 µM (inactive) | > 100 µM (inactive) | 56 µM (inactive) | > 100 µM (inactive) | > 90.4 µM (inactive) | > 100 µM (inactive) | > 100 µM (inactive) | > 100 µM (inactive) | > 100 µM (inactive) | > 100 µM (inactive) | > 100 µM (inactive) | > 100 µM (inactive) | > 100 µM (inactive) | > 100 µM (inactive) | > 100 µM (inactive)
4 | O=C1N(c2ccc(Cl)cc2)C(=O)C2(SC=NN2Cc2ccccc2)N1c1ccc(Cl)cc1 (configuration not stated) | 64.7 µM (inactive) | > 100 µM (inactive) | > 100 µM (inactive) | > 100 µM (inactive) | > 100 µM (inactive) | > 100 µM (inactive) | > 100 µM (inactive) | > 100 µM (inactive) | 8.34 µM (inactive) | 37.9 µM (inactive) | > 10 µM (inactive) | > 100 µM (inactive) | > 100 µM (inactive) | > 100 µM (inactive) | > 100 µM (inactive) | 51.1 µM (inactive) | > 100 µM (inactive) |  |  | 
5 | O=C(Nc1ccccc1)OCc1nc2c([nH]1)C(=O)C=CC2=O | 19.3 µM (inactive) | 15.5 µM (inactive) | 18.3 µM (inactive) | 20.7 µM (inactive) | 16.5 µM (inactive) | 19.4 µM (inactive) | 16.1 µM (inactive) | 24.6 µM (inactive) | 18.7 µM (inactive) | 10.8 µM (inactive) | 1.9 µM (inactive) | 16.9 µM (inactive) | 16 µM (inactive) | 12.5 µM (inactive) | 27.5 µM (inactive) | 16.7 µM (inactive) | 2.62 µM (inactive) |  |  | 
6 | CC(=O)O[C@H]1C(=O)O[C@@H]2C[C@H]3C(C)=CC(=O)[C@@H](O)[C@]3(C)[C@H]3[C@@]4(O)OC[C@]32[C@@H]1[C@@H](C)[C@H]4O | 0.0366 µM (active) | 0.0444 µM (active) | 0.0238 µM (active) | 0.0453 µM (active) | 0.0505 µM (active) | 0.0977 µM (active) | 0.0321 µM (active) | 0.0329 µM (active) | 0.0286 µM (active) | 0.0301 µM (active) | 0.188 µM (active) | 0.0279 µM (active) | 0.0219 µM (active) | 0.0285 µM (active) | 0.0518 µM (active) | 0.0266 µM (active) | 0.0527 µM (active) | 0.0214 µM (active) | 0.0294 µM (active) | 2.21 µM (inactive)
7 | CCC12C[N+]3([O-])CCc4c([nH]c5ccccc45)C(C(=O)OC)(c4cc5c(cc4OC)N(C)C4C(O)(C(=O)OC)C(OC(C)=O)C6(CC)C=CCN7CCC54C76)CC(C3)C1O2 (configuration not stated) | 0.242 µM (active) | 2.67 µM (inactive) | 0.461 µM (active) | 0.467 µM (active) | 2.55 µM (inactive) | 0.256 µM (active) | 1.09 µM (active) | 0.594 µM (active) | 0.331 µM (active) | 0.693 µM (active) | 0.423 µM (active) | 0.968 µM (active) | 2.17 µM (inactive) | 1.04 µM (active) | 0.342 µM (active) | 0.337 µM (active) | 0.598 µM (active) |  |  | 
8 | O=C1C2=C(c3ccccc31)C(c1ccccc1)N1C(=O)CSC1=N2 (configuration not stated) | 23.3 µM (inactive) | > 71.8 µM (inactive) | > 54.6 µM (inactive) | > 55.7 µM (inactive) | > 68.1 µM (inactive) | 91 µM (inactive) | 37.3 µM (inactive) | 32.6 µM (inactive) | 56.9 µM (inactive) | 25.6 µM (inactive) | > 56.4 µM (inactive) | > 57.4 µM (inactive) | 49.4 µM (inactive) | > 63 µM (inactive) | 43.4 µM (inactive) | 51.2 µM (inactive) | 50.8 µM (inactive) | 17.4 µM (inactive) | 33.8 µM (inactive) | 24 µM (inactive)
9 | O=C(OCc1ccccc1)n1cccc1 | 31.8 µM (inactive) | > 100 µM (inactive) | > 100 µM (inactive) | > 100 µM (inactive) | > 100 µM (inactive) | > 100 µM (inactive) | > 100 µM (inactive) | > 100 µM (inactive) | 54.6 µM (inactive) | > 100 µM (inactive) | > 100 µM (inactive) | > 100 µM (inactive) | > 100 µM (inactive) | > 100 µM (inactive) | 65.9 µM (inactive) | > 100 µM (inactive) | > 100 µM (inactive) |  |  | 
